Experimental data: patent publication US20240083886A1, “HETEROCYCLIC GLP-1 AGONISTS” (Gasherbrum Bio, Inc., priority 2020, published 2024)

target: GLP-1 Receptor (Homo sapiens, UniProt P43220); assay: GLP-1R agonist cAMP stimulation assay; type: cell-based; settings: not given
Method in brief: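 HEK293/CRE-Luc cells stably expressing GLP-1R, 1000 cells/well in DPBS with 0.5 mM IBMX and 0.1% BSA, exposed to ½-log compound dilutions 30 min at 37 °C. cAMP measured by HTRF (665/615 nm) after 1 h at room temperature. % activity normalised between vehicle and MAX controls.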

GLP-1 Receptor, sequence (P43220 24-463, species assumed): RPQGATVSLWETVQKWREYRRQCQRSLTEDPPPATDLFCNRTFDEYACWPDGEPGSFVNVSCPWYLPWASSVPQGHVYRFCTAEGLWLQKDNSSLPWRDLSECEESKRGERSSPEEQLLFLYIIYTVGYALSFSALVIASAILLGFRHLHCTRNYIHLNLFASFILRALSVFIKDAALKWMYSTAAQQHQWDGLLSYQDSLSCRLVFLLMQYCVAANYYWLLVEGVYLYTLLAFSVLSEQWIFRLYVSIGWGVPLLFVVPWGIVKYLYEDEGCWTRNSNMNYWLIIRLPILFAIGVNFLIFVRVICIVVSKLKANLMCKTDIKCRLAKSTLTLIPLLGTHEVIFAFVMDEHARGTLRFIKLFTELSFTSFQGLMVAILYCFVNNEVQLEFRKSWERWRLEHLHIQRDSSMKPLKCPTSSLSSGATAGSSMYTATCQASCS

In order of rising EC50:
1. Cc1nnc(-c2cc3nc(CN4CCC(Oc5nc(Cc6ccc(Cl)cc6)ncc5F)CC4)n(C[C@@H]4CCO4)c3cn2)[nH]1 [Compound 163a, 2-[(4-chlorophenyl)methyl]-5-fluoro-4-[(1-{[6-(5-methyl-4H-1,2,4-triazol-3-yl)-3-{[(2S)-oxetan-2-yl]methyl}-3H-imidazo[4,5-c]pyridin-2-yl]methyl}piperidin-4-yl)oxy]pyrimidine]  250 pM
2. Cc1nnc(-c2cnc3c(c2)nc(CN2CCC(Oc4nc(Cc5ccc(Cl)cc5)ncc4F)CC2)n3C[C@@H]2CCO2)[nH]1 [Compound 162a, 2-[(4-chlorophenyl)methyl]-5-fluoro-4-[(1-{[6-(5-methyl-4H-1,2,4-triazol-3-yl)-3-{[(2S)-oxetan-2-yl]methyl}-3H-imidazo[4,5-b]pyridin-2-yl]methyl}piperidin-4-yl)oxy]pyrimidine]  2900 pM

same assay, conditions: HEK293/GLP1R/CRE-LUC cells, cAMP dynamic 2 Kit (Cisbio), 30 min incubation at 37° C.; read-out: EC50

In order of falling EC50:
1. CC(=O)Nc1ccc2c(c1)nc(CN1CCC(Oc3cccc(Cc4ccc(Cl)cc4F)n3)CC1)n2C[C@@H]1CCO1 [Compound 160a]  12200 pM
2. O=c1[nH]c(-c2cnc3c(c2)nc(CN2CCC(Oc4ccnc(Cc5ccc(Cl)cc5)n4)CC2)n3C[C@@H]2CCO2)no1 [Compound 144a, 3-(2-{[4-({2-[(4-chlorophenyl)methyl]pyrimidin-4-yl}oxy)piperidin-1-yl]methyl}-3-{[(2S)-oxetan-2-yl]methyl}-3H-imidazo[4,5-b]pyridin-6-yl)-4,5-dihydro-1,2,4-oxadiazol-5-one]  1800 pM
3. Fc1cnc(Cc2ccc(Cl)cc2)nc1OC1CCN(Cc2nc3cc(-c4nnc(C(F)(F)F)[nH]4)cnc3n2C[C@@H]2CCO2)CC1 [Compound 121a, 2-[(4-chlorophenyl)methyl]-5-fluoro-4-({1-[(3-{[(2S)-oxetan-2-yl]methyl}-6-[5-(trifluoromethyl)-4H-1,2,4-triazol-3-yl]-3H-imidazo[4,5-b]pyridin-2-yl)methyl]piperidin-4-yl}oxy)pyrimidine]  500 pM
4. Fc1cc(Cc2cccc(OC3CCN(Cc4nc5cc(-c6nnc(C(F)(F)F)[nH]6)ncc5n4C[C@@H]4CCO4)CC3)n2)ccc1Cl [Compound 185a, 2-[(4-chloro-3-fluorophenyl)methyl]-6-({1-[(3-{[(2S)-oxetan-2-yl]methyl}-6-[5-(trifluoromethyl)-4H-1,2,4-triazol-3-yl]-3H-imidazo[4,5-c]pyridin-2-yl)methyl]piperidin-4-yl}oxy)pyridine]  370 pM
5. Fc1cc(Cl)ccc1Cc1ccc(F)c(OC2CCN(Cc3nc4cc(-c5nnc(C(F)(F)F)[nH]5)ncc4n3C[C@@H]3CCO3)CC2)n1 [Compound 164a, 6-[(4-chloro-2-fluorophenyl)methyl]-3-fluoro-2-({1-[(3-{[(2S)-oxetan-2-yl]methyl}-6-[5-(trifluoromethyl)-4H-1,2,4-triazol-3-yl]-3H-imidazo[4,5-c]pyridin-2-yl)methyl]piperidin-4-yl}oxy)pyridine]  350 pM
6. N#Cc1ccc(Cc2cccc(OC3CCN(Cc4nc5cc(-c6nnc(C(F)(F)F)[nH]6)ncc5n4C[C@@H]4CCO4)CC3)n2)c(F)c1 [Compound 190a, 3-fluoro-4-{[6-({1-[(3-{[(2S)-oxetan-2-yl]methyl}-6-[5-(trifluoromethyl)-4H-1,2,4-triazol-3-yl]-3H-imidazo[4,5-c]pyridin-2-yl)methyl]piperidin-4-yl}oxy)pyridin-2-yl]methyl}benzonitrile]  240 pM
7. O=c1[nH]c(-c2cc3nc(CN4CCC(Oc5ccnc(Cc6ccc(Cl)cc6F)n5)CC4)n(C[C@@H]4CCO4)c3cn2)no1 [Compound 167a, 3-(2-{[4-({2-[(4-chloro-2-fluorophenyl)methyl]pyrimidin-4-yl}oxy)piperidin-1-yl]methyl}-3-{[(2S)-oxetan-2-yl]methyl}-3H-imidazo[4,5-c]pyridin-6-yl)-4,5-dihydro-1,2,4-oxadiazol-5-one]  230 pM
8. O=C(O)c1ccc2c(c1)nc(CN1CCC(Oc3ccnc(Cc4ccc(Cl)cc4F)n3)CC1)n2C[C@@H]1CCO1 [Compound 135a, 2-{[4-({2-[(4-chloro-2-fluorophenyl)methyl]pyrimidin-4-yl}oxy)piperidin-1-yl]methyl}-1-{[(2S)-oxetan-2-yl]methyl}-1H-1,3-benzodiazole-5-carboxylic acid]  190 pM
9. Fc1cc(Cl)ccc1Cc1cccc(OC2CCN(Cc3nc4cc(-c5nnc(C(F)(F)F)[nH]5)cnc4n3C[C@@H]3CCO3)CC2)n1 [Compound 141a, 2-[(4-chloro-2-fluorophenyl)methyl]-6-({1-[(3-{[(2S)-oxetan-2-yl]methyl}-6-[5-(trifluoromethyl)-4H-1,2,4-triazol-3-yl]-3H-imidazo[4,5-b]pyridin-2-yl)methyl]piperidin-4-yl}oxy)pyridine]  130 pM
